Reference: patent publication US20120302569A1, “PHENYL-THIAZOLYL INHIBITORS OF PRO-MATRIX METALLOPROTEINASE ACTIVATION” (priority 2011, published 2012)
Counter-ions that a name gives are not always drawn.

Legend:
[1] = target: T1, full-length proMMP9(1-707) (SEQ ID NO:1) (Homo sapiens, UniProt P14780, R574P); assay: proMMP9/MMP3 P126 Activation Assay; assay type: biochemical; details: proMMP9(1-707) from HEK293 cells activated by catalytic MMP3
T1 construct: made in house; host or cells: HEK293 (proMMP9, secreted); E. coli (MMP3)
T1 sequence (P14780 20-707 R574P): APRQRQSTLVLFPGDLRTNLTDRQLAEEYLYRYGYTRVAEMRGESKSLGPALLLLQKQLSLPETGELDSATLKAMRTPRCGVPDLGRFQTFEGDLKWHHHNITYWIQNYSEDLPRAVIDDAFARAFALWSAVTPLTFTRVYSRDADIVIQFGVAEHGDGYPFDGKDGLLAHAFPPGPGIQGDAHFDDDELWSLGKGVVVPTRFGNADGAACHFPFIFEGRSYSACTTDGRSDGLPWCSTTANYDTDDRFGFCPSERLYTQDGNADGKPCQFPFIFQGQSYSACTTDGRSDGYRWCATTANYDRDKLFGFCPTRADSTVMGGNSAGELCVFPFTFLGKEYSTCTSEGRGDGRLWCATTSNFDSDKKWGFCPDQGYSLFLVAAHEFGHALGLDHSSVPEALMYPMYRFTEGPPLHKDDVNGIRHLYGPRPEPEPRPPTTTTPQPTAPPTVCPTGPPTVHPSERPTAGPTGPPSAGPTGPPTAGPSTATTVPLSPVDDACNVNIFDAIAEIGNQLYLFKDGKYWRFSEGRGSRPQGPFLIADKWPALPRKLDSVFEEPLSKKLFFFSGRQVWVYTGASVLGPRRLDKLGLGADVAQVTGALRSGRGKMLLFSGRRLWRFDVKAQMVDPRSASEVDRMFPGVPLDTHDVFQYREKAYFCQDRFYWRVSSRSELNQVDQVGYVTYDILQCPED
Method: proMMP9/MMP3 P126 Activation Assay
The reaction volume was 50 μL. […] Reactivity of residual MMP3 towards P-126 substrate was minimal under these conditions.

[2] = target: T2, proMMP9(67-444;ΔFnII) (SEQ ID NO:5) (Homo sapiens, UniProt P14780, DEL216-390); assay: ThermoFluor with proMMP9(67-444;ΔFnII); details: read-out: proMMP9(67-444; ΔFnII) (SEQ ID NO: 5) binding
T2 construct: start methionine (N); made in house; host or cells: E. coli BL21(DE3) RIL
T2 sequence (P14780 with tags, fused parts or gaps DEL216-390): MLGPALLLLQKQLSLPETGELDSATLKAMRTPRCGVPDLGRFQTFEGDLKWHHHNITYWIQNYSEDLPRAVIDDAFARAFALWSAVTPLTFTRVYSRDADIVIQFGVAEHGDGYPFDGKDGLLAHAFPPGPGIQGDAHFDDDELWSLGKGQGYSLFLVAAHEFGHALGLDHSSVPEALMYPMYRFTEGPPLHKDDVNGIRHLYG
Method: (§1) The ThermoFluor® (TF) assay is a 384-well plate-based binding assay that measures thermal stability of proteins (Biomol Screen 2001, 6, 429-40; Biochemistry 2005, 44, 5258-66). The experiments were carried out using instruments available from Johnson & Johnson Pharmaceutical Research & Development, LLC. TF dye used in all experiments was […] (1,8-ANS) (Invitrogen: A-47).
(§2) Compounds were arranged in a pre-dispensed plate (Greiner Bio-one: 781280), wherein compounds were serially diluted in 100% DMSO across 11 columns within a series. Columns 12 and 24 were used as DMSO reference and contained no compound. For multiple compound concentration-response experiments, the compound aliquots (50 nL) were robotically predispensed directly into black 384-well polypropylene PCR microplates (Abgene: TF-0384/k) using a Cartesian Hummingbird liquid handler (DigiLab, Holliston, Mass.). Following compound dispense, protein and dye solutions were added to achieve the final assay volume of 3 μL. The assay solutions were overlayed with 1 μL of silicone oil (Fluka, type DC 200: 85411) to prevent evaporation.
(§3) Assay plates were robotically loaded onto a thermostatically controlled PCR-type thermal block and then heated from 40 to 90° C. at a ramp-rate of 1° C./min for all experiments. Fluorescence was measured by continuous illumination with UV light (Hamamatsu LC6) supplied via fiber optics and filtered through a band-pass filter (380-400 nm; >6 OD cutoff). Fluorescence emission of the entire 384-well plate was detected by measuring light intensity using a CCD camera (Sensys, Roper Scientific) filtered to detect 500±25 nm, resulting in simultaneous and independent readings of all 384 wells. A single image with 20-sec exposure time was collected at each temperature, and the sum of the pixel intensity in a given area of the assay plate was recorded vs temperature and fit to standard equations to yield the Tm (J Biomol Screen 2001, 6, 429-40).
(§4) Thermodynamic parameters necessary for fitting compound binding for each proMMP were estimated by differential scanning calorimetry (DSC) and from ThermoFluor® data. The heat capacity of unfolding for each protein was estimated from the molecular weight and from ThermoFluor® dosing data.
ThermoFluor® with proMMP9(67-444;ΔFnII) (SEQ ID NO:5)
The protein sample preparations had to include a desalting buffer exchange step via a PD-10 gravity column (GE Healthcare). The desalting buffer exchange was performed prior to diluting the protein to the final assay concentration of 3.5 μM proMMP9(67-444;ΔFnII) (SEQ ID NO:5). The concentration of proMMP9(67-444;ΔFnII) (SEQ ID NO:5) was determined spectrophotometrically based on a calculated extinction coefficient of ε280=33900 M^−1cm^−1, a calculated molecular weight of 22.6 kDa, and calculated pI of 5.20. ThermoFluor® reference conditions were defined as follows: 80 μg/mL (3.5 μM) proMMP9(67-444;ΔFnII) (SEQ ID NO:5), 50 μM 1,8-ANS, pH 7.0 Buffer (50 mM HEPES pH 7.0, 100 mM NaCl, 0.001% Tween-20, 2.5 mM MgCl2, 300 μM CaCl2). The thermodynamic parameters for proMMP9(67-444;ΔFnII) (SEQ ID NO:5) are as follows: Tm (° C.)=63 (+/−0.1), ΔUH(Tm) (cal mol^−1)=105000(+/−5000), ΔUS(Tm) (cal mol^−1 K^−1)=450, […].

[3] = target: T3, proMMP9(20-445;ΔFnII) (SEQ ID NO:6) (Homo sapiens, UniProt P14780, DEL216-390); assay: ThermoFluor with proMMP9(20-445;ΔFnII); details: read-out: proMMP9(20-445; ΔFnII) (SEQ ID NO: 6) binding
T3 construct: start methionine (N); made in house; host or cells: E. coli BL21(DE3) RIL
T3 sequence (P14780 with tags, fused parts or gaps DEL216-390): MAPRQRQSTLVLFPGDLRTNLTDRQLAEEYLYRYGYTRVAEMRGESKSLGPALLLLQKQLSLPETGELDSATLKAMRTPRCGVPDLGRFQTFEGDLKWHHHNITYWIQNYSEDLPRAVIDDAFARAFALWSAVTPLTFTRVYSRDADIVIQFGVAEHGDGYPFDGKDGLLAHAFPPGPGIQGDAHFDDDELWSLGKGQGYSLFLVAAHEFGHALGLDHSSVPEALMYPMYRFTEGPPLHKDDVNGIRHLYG
Method: as §1, §2, §3, §4
ThermoFluor® with proMMP9(20-445;ΔFnII) (SEQ ID NO:6)
The protein sample preparations included a desalting buffer exchange step via a PD-10 gravity column (GE Healthcare). The desalting buffer exchange was performed prior to diluting the protein to the final assay concentration of 2.8 μM proMMP9(20-445;ΔFnII) (SEQ ID NO:6). The concentration of proMMP9(20-445;ΔFnII) (SEQ ID NO:6) was determined spectrophotometrically based on a calculated extinction coefficient of ε280=39880 M^−1cm^−1, a calculated molecular weight of 28.2 kDa, and calculated pI of 5.5. ThermoFluor® reference conditions were define as follows: 80 μg/mL (2.8 μM) proMMP9(20-445;ΔFnII) (SEQ ID NO:6), 50 μM 1,8-ANS, pH 7.0 Buffer (50 mM HEPES pH 7.0, 100 mM NaCl, 0.001% Tween-20, 2.5 mM MgCl2, 300 μM CaCl2). The thermodynamic parameters for proMMP9(20-445;ΔFnII) (SEQ ID NO:6) are as follows: Tm (° C.)=72 (+/−0.1), ΔUH(Tm) (cal mol^−1)=160000(+/−5000), ΔUS(Tm) (cal mol^−1 K^−1)=434, ΔUCp (cal mol^−1 K^−1)=2400.

Row | IC50 [1] [nM] | Kd [2] [nM] | Kd [3] [nM] | SMILES
1 | ≥ 20000 | 7700 | > 9000 | COc1ccc(F)cc1Nc1nc(-c2ccc(OCCN3CCC(F)(F)CC3)cc2)cs1 [Example 67, 4-(4-(2-(4,4-difluoropiperidin-1-yl)ethoxy)phenyl)-N-(5-fluoro-2-methoxyphenyl)thiazol-2-amine.TFA]
2 | 200 | 1800 | 44000 | COc1ccc(F)cc1Nc1nc(-c2ccc(OCCCN3CCOCC3)cc2)cs1 [Example 71, N-(5-fluoro-2-methoxyphenyl)-4-(4-(3-morpholinopropoxy)phenyl)thiazol-2-amine.TFA]
3 | 120 | 28 | 21 | CC(C)Oc1ccc(S(N)(=O)=O)cc1Nc1nc(-c2ccc(OCCN3CCC(F)CC3)cc2)cs1 [Example 34, 3-((4-(4-(2-(4-fluoropiperidin-1-yl)ethoxy)phenyl)thiazol-2-yl)amino)-4-isopropoxybenzenesulfonamide.TFA]
4 | 150 | 100 | 28 | CC(C)Oc1ccc(C(N)=O)cc1Nc1nc(-c2ccc(OCCN3CCOCC3)cc2)cs1 [Example 29, 4-Isopropoxy-3-((4-(4-(2-morpholinoethoxy)phenyl)thiazol-2-yl)amino)benzamide.TFA]
5 | 110 | 67 | 29 | CC(C)Oc1ccc(C(N)=O)cc1Nc1nc(-c2ccc(N3CCN(C)CC3)cc2)cs1 [Example 8, 4-Isopropoxy-3-((4-(4-(4-methylpiperazin-1-yl)phenyl)thiazol-2-yl)amino)benzamide.TFA]
6 | 360 | 270 | 74 | NC(=O)c1ccc(OC(F)(F)F)c(Nc2nc(-c3ccc(OCCN4CCC(F)CC4)cc3)cs2)c1 [Example 37, 3-((4-(4-(2-(4-fluoropiperidin-1-yl)ethoxy)phenyl)thiazol-2-yl)amino)-4-(trifluoromethoxy)benzamide.TFA]
7 | ≥ 20000 | 4900 | > 19000 | CC(C)Oc1ccc(F)cc1Nc1nc(-c2ccc(OCCN3CCOCC3)cc2)cs1 [Example 65, N-(5-fluoro-2-isopropoxyphenyl)-4-(4-(2-morpholinoethoxy)phenyl)thiazol-2-amine.TFA]
8 | 780 | 1000 | 4300 | COc1ccncc1Nc1nc(-c2ccc(OCCN3CCC(F)CC3)cc2)cs1 [Example 35, 4-(4-(2-(4-fluoropiperidin-1-yl)ethoxy)phenyl)-N-(4-methoxypyridin-3-yl)thiazol-2-amine.TFA]
9 | 250 | 960 | 4600 | COc1ccc(F)cc1Nc1nc(-c2ccc(CN3CCN(C(C)C)CC3)cc2)cs1 [Example 63, N-(5-fluoro-2-methoxyphenyl)-4-(4-((4-isopropylpiperazin-1-yl)methyl)phenyl)thiazol-2-amine.TFA]
10 | > 20000 | 3000 | 2600 | NS(=O)(=O)c1cc2c(c(Nc3nc(-c4ccc(OCCN5CCC(F)CC5)cc4)cs3)c1)OCC2 [Example 38, 7-((4-(4-(2-(4-fluoropiperidin-1-yl)ethoxy)phenyl)thiazol-2-yl)amino)-2,3-dihydrobenzofuran-5-sulfonamide.TFA]
11 | 740 | 870 | 380 | CC(C)Oc1ccc(C(N)=O)cc1Nc1nc(-c2ccc(N3CCN(Cc4ccccc4)CC3)cc2)cs1 [Example 11, 3-((4-(4-(4-Benzylpiperazin-1-yl)phenyl)thiazol-2-yl)amino)-4-isopropoxybenzamide.TFA]
12 | 57 | > 76000 | 400 | CCOc1ccncc1Nc1nc(-c2ccc(C3=CCN(C)CC3)cc2)cs1 [Example 21, N-(4-Ethoxypyridin-3-yl)-4-(4-(1-methyl-1,2,3,6-tetrahydropyridin-4-yl)phenyl)thiazol-2-amine]
13 | 1200 | 650 | 410 | CC(C)Oc1ccc(S(N)(=O)=O)cc1Nc1nc(-c2ccc(N3CCN(Cc4ccccc4)CC3)cc2)cs1 [Example 6, 3-((4-(4-(4-Benzylpiperazin-1-yl)phenyl)thiazol-2-yl)amino)-4-isopropoxybenzenesulfonamide.TFA]
14 | 1300 | 660 | 190 | CC(C)Cc1ccc(C(N)=O)cc1Nc1nc(-c2ccc(OCCN3CCC(F)CC3)cc2)cs1 [Example 40, 3-((4-(4-(2-(4-fluoropiperidin-1-yl)ethoxy)phenyl)thiazol-2-yl)amino)-4-isobutylbenzamide.TFA]
15 | 110 | 87 | 27 | CC(C)Oc1ccc(C(N)=O)cc1Nc1nc(-c2ccc(CN3CC[C@@H](F)C3)cc2)cs1 [Example 52, (R)-3-((4-(4-((3-fluoropyrrolidin-1-yl)methyl)phenyl)thiazol-2-yl)amino)-4-isopropoxybenzamide.TFA]
16 | 92 | 69 | 380 | CCOc1ccncc1Nc1nc(-c2ccc(C3=CCNCC3)cc2)cs1 [Example 20, N-(4-Ethoxypyridin-3-yl)-4-(4-(1,2,3,6-tetrahydropyridin-4-yl)phenyl)thiazol-2-amine.TFA]
17 | 1800 | 2900 | > 19000 | COc1ccc(F)cc1Nc1nc(-c2ccc(OCCN3CCOCC3)cc2)cs1 [Example 66, N-(5-fluoro-2-methoxyphenyl)-4-(4-(2-morpholinoethoxy)phenyl)thiazol-2-amine.TFA]
